Results taken from publication PMC11845477, “Exploring the principles behind antibiotics with limited resistance” (Nature Communications, 2025).

System: P. aeruginosa ATCC BAA-3107 (SEN) and P. aeruginosa LESB58 (MDR)
Assay: Adaptive laboratory evolution (ALE), relative MIC of evolved lines
Assay type: cell-based, Pseudomonas aeruginosa
From the text: Using the same set of bacterial strains, we initiated adaptive laboratory evolution with the aim to maximize the level of antibiotic resistance in the populations achieved during a longer, but fixed time period.
An established protocol for adaptive laboratory evolution[46],[73] was followed to propagate populations with the highest resistance levels. Starting with an antibiotic concentration that caused approximately 50% growth inhibition, ten parallel populations for each antibiotic-ancestor strain combination were grown for 72 hours at 37 °C with continuous shaking (300 RPM). MHB broth medium was used unless stated otherwise. After each incubation, 20 µl of each culture was transferred to four new wells containing fresh medium with increasing antibiotic concentrations (0.5×, 1×, 1.5×, and 2.5× the previous concentration) in a chessboard layout to monitor potential cross-contamination. Growth was monitored by measuring OD600 using a Biotek Synergy 2 microplate reader, and only populations grown in the highest drug concentration with an OD600 > 0.2 were transferred further.
A robotic liquid handling system was used to automatically prepare a 11 to 16-step serial dilution in 384-well microtiter plates (Greiner). A final concentration of 5 × 10^5 bacterial cells per mL were inoculated into each well containing 60 µL MHB medium. Bacterial cultures were incubated at 37 °C with continuous shaking (Infors shaker, 900 rpm with 3 mm throw) for 18 hours (2 replicates from each). Cell growth was monitored by measuring the optical density (OD600 values, using Biotek Synergy microplate reader). MIC was defined as the antibiotic concentration of complete growth inhibition (i.e., OD600 < 0.05). Relative MIC was calculated as follows:1 relativeMIC=MICevolved/MICancestor […]
Supplementary Figure 4. Resistance levels following adaptive laboratory evolution across bacterial strains. The level of resistance was measured as the fold change in relative MIC between evolved and ancestral strains after ~60 days of adaptive laboratory evolution. Data are grouped by bacterial strain (A. baumannii (AB), E. coli (EC), K. pneumoniae (KP), and P. aeruginosa (PA)) and categorized as either multidrug-resistant (MDR) or sensitive (SEN). Each data point represents a laboratory evolved line, and boxplots show the median, first and third quartiles, with whiskers indicating the 5th and 95th percentiles.
Statistical analysis was performed using two-sided Dunn’s post-hoc test with Benjamini-Hochberg correction for multiple comparisons (****/ ***/ **/ * indicates p < 0.0001/ 0.001/ 0.01/ 0.05). For detailed information on antibiotic and bacterial species, see Supplementary Table 1. For mode of action groups, refer to Table 1. Source data are provided as a Source Data file.

[1] = PA-SEN (ATCC BAA 3107), evolved line 2
[2] = PA-SEN (ATCC BAA 3107), evolved line 2, MIC of evolved line / MIC of ancestor
[3] = PA-SEN (ATCC BAA 3107), evolved line 3
[4] = PA-SEN (ATCC BAA 3107), evolved line 3, MIC of evolved line / MIC of ancestor
[5] = PA-SEN (ATCC BAA 3107), evolved line 4
[6] = PA-SEN (ATCC BAA 3107), evolved line 4, MIC of evolved line / MIC of ancestor
[7] = PA-SEN (ATCC BAA 3107), evolved line 5
[8] = PA-SEN (ATCC BAA 3107), evolved line 5, MIC of evolved line / MIC of ancestor
[9] = PA-SEN (ATCC BAA 3107), evolved line 6
[10] = PA-SEN (ATCC BAA 3107), evolved line 6, MIC of evolved line / MIC of ancestor
[11] = PA-SEN (ATCC BAA 3107), evolved line 7
[12] = PA-SEN (ATCC BAA 3107), evolved line 7, MIC of evolved line / MIC of ancestor
[13] = PA-SEN (ATCC BAA 3107), evolved line 8
[14] = PA-SEN (ATCC BAA 3107), evolved line 8, MIC of evolved line / MIC of ancestor
[15] = PA-SEN (ATCC BAA 3107), evolved line 9
[16] = PA-SEN (ATCC BAA 3107), evolved line 9, MIC of evolved line / MIC of ancestor
[17] = PA-SEN (ATCC BAA 3107), evolved line 10
[18] = PA-SEN (ATCC BAA 3107), evolved line 10, MIC of evolved line / MIC of ancestor
[19] = PA-SEN (Pseudomonas aeruginosa ATCC BAA 3107), evolved line 7 adapted to the named antibiotic
[20] = Pseudomonas aeruginosa ATCC BAA 3107 (PA-SEN), evolved line 2
[21] = Pseudomonas aeruginosa ATCC BAA 3107 (PA-SEN), evolved line 3
[22] = Pseudomonas aeruginosa ATCC BAA 3107 (PA-SEN), evolved line 4
[23] = Pseudomonas aeruginosa ATCC BAA 3107 (PA-SEN), evolved line 5
[24] = Pseudomonas aeruginosa ATCC BAA 3107 (PA-SEN), evolved line 6
[25] = Pseudomonas aeruginosa ATCC BAA 3107 (PA-SEN), evolved line 7
[26] = Pseudomonas aeruginosa ATCC BAA 3107 (PA-SEN), evolved line 8
[27] = Pseudomonas aeruginosa ATCC BAA 3107 (PA-SEN), evolved line 9
[28] = Pseudomonas aeruginosa ATCC BAA 3107 (PA-SEN), evolved line 10

Structure (SMILES): Nc1nc(-n2cc(C(=O)O)c(=O)c3cc(F)c(N4CC(O)C4)c(Cl)c32)c(F)cc1F [Delafloxacin]
- Relative MIC (PA-MDR (LESB 58), evolved line 1, MIC of evolved line / MIC of ancestor): 64
- Relative MIC (PA-MDR (LESB 58), evolved line 2, MIC of evolved line / MIC of ancestor): 64
- Relative MIC (PA-MDR (LESB 58), evolved line 3, MIC of evolved line / MIC of ancestor): 64
- MIC of evolved line (PA-MDR (LESB 58), evolved line 4): 128 µg/mL
- Relative MIC (PA-MDR (LESB 58), evolved line 4, MIC of evolved line / MIC of ancestor): 64
- MIC of evolved line (PA-MDR (LESB 58), evolved line 5): 128 µg/mL
- Relative MIC (PA-MDR (LESB 58), evolved line 5, MIC of evolved line / MIC of ancestor): 64
- MIC of evolved line (PA-MDR (LESB 58), evolved line 6): 64 µg/mL
- Relative MIC (PA-MDR (LESB 58), evolved line 6, MIC of evolved line / MIC of ancestor): 32
- MIC of evolved line (PA-MDR (LESB 58), evolved line 7): 128 µg/mL
- Relative MIC (PA-MDR (LESB 58), evolved line 7, MIC of evolved line / MIC of ancestor): 64
- MIC of evolved line (PA-MDR (LESB 58), evolved line 8): 128 µg/mL
- Relative MIC (PA-MDR (LESB 58), evolved line 8, MIC of evolved line / MIC of ancestor): 64
- MIC of evolved line (PA-MDR (LESB 58), evolved line 9): 128 µg/mL
- Relative MIC (PA-MDR (LESB 58), evolved line 9, MIC of evolved line / MIC of ancestor): 64
- MIC of evolved line (PA-MDR (LESB 58), evolved line 10): 64 µg/mL
- Relative MIC (PA-MDR (LESB 58), evolved line 10, MIC of evolved line / MIC of ancestor): 32
- Relative MIC (log10) (PA-MDR (Pseudomonas aeruginosa LESB 58), evolved line 2 adapted to the named antibiotic): 1.806
- Relative MIC (log10) (PA-MDR (Pseudomonas aeruginosa LESB 58), evolved line 4 adapted to the named antibiotic): 1.806
- Relative MIC (log10) (PA-MDR (Pseudomonas aeruginosa LESB 58), evolved line 6 adapted to the named antibiotic): 1.505
- Relative MIC (log10) (PA-MDR (Pseudomonas aeruginosa LESB 58), evolved line 7 adapted to the named antibiotic): 1.806
- Relative MIC (log10) (PA-MDR (Pseudomonas aeruginosa LESB 58), evolved line 9 adapted to the named antibiotic): 1.806
- MIC of evolved line (PA-MDR LESB 58, evolved line 1): 128 µg/mL
- MIC of evolved line (PA-MDR LESB 58, evolved line 2): 128 µg/mL
- MIC of evolved line (PA-MDR LESB 58, evolved line 3): 128 µg/mL
- MIC of evolved line [1]: 32 µg/mL
- Relative MIC [2]: 2048
- MIC of evolved line [3]: 64 µg/mL
- Relative MIC [4]: 4096
- MIC of evolved line [5]: 32 µg/mL
- Relative MIC [6]: 2048
- MIC of evolved line [7]: 32 µg/mL
- Relative MIC [8]: 2048
- MIC of evolved line [9]: 64 µg/mL
- Relative MIC [10]: 4096
- MIC of evolved line [11]: 32 µg/mL
- Relative MIC [12]: 2048
- MIC of evolved line [13]: 32 µg/mL
- Relative MIC [14]: 2048
- MIC of evolved line [15]: 32 µg/mL
- Relative MIC [16]: 2048
- MIC of evolved line [17]: 32 µg/mL
- Relative MIC [18]: 2048
- Relative MIC (log10) (PA-SEN (Pseudomonas aeruginosa ATCC BAA 3107), evolved line 2 adapted to the named antibiotic): 3.311
- Relative MIC (log10) [19]: 3.311
- Relative MIC (log10) (PA-SEN (Pseudomonas aeruginosa ATCC BAA 3107), evolved line 8 adapted to the named antibiotic): 3.311
- Relative MIC (log10) (PA-SEN (Pseudomonas aeruginosa ATCC BAA 3107), evolved line 10 adapted to the named antibiotic): 3.311
- Relative MIC [20]: 2048
- Relative MIC [21]: 4096
- Relative MIC [22]: 2048
- Relative MIC [23]: 2048
- Relative MIC [24]: 4096
- Relative MIC [25]: 2048
- Relative MIC [26]: 2048
- Relative MIC [27]: 2048
- Relative MIC [28]: 2048
- Relative MIC (Pseudomonas aeruginosa LESB 58 (PA-MDR), evolved line 1): 64
- Relative MIC (Pseudomonas aeruginosa LESB 58 (PA-MDR), evolved line 2): 64
- Relative MIC (Pseudomonas aeruginosa LESB 58 (PA-MDR), evolved line 3): 64
- Relative MIC (Pseudomonas aeruginosa LESB 58 (PA-MDR), evolved line 4): 64
- Relative MIC (Pseudomonas aeruginosa LESB 58 (PA-MDR), evolved line 5): 64
- Relative MIC (Pseudomonas aeruginosa LESB 58 (PA-MDR), evolved line 6): 32
- Relative MIC (Pseudomonas aeruginosa LESB 58 (PA-MDR), evolved line 7): 64
- Relative MIC (Pseudomonas aeruginosa LESB 58 (PA-MDR), evolved line 8): 64
- Relative MIC (Pseudomonas aeruginosa LESB 58 (PA-MDR), evolved line 9): 64
- Relative MIC (Pseudomonas aeruginosa LESB 58 (PA-MDR), evolved line 10): 32

Structure (SMILES): C[C@H]1c2cccc(O)c2C(=O)C2=C(O)[C@]3(O)C(=O)C(C(N)=O)=C(O)[C@@H](N(C)C)[C@@H]3[C@@H](O)[C@@H]21 [Doxycycline]
- Relative MIC (PA-SEN (ATCC BAA 3107), evolved line 1, MIC of evolved line / MIC of ancestor): 64
- MIC of evolved line [1]: 256 µg/mL
- Relative MIC [2]: 64
- MIC of evolved line [3]: 256 µg/mL
- Relative MIC [4]: 64
- MIC of evolved line [5]: 256 µg/mL
- Relative MIC [6]: 64
- MIC of evolved line [7]: 256 µg/mL
- Relative MIC [8]: 64
- MIC of evolved line [9]: 256 µg/mL
- Relative MIC [10]: 64
- MIC of evolved line [11]: 256 µg/mL
- Relative MIC [12]: 64
- MIC of evolved line [13]: 256 µg/mL
- Relative MIC [14]: 64
- MIC of evolved line [15]: 256 µg/mL
- Relative MIC [16]: 64
- MIC of evolved line [17]: 256 µg/mL
- Relative MIC [18]: 64
- Relative MIC (log10) (PA-SEN (Pseudomonas aeruginosa ATCC BAA 3107), evolved line 1 adapted to the named antibiotic): 1.806
- Relative MIC (log10) (PA-SEN (Pseudomonas aeruginosa ATCC BAA 3107), evolved line 3 adapted to the named antibiotic): 1.806
- Relative MIC (log10) (PA-SEN (Pseudomonas aeruginosa ATCC BAA 3107), evolved line 5 adapted to the named antibiotic): 1.806
- Relative MIC (log10) [19]: 1.806
- Relative MIC (log10) (PA-SEN (Pseudomonas aeruginosa ATCC BAA 3107), evolved line 9 adapted to the named antibiotic): 1.806
- MIC of evolved line (PA-SEN ATCC BAA 3107, evolved line 1): 256 µg/mL
- Relative MIC (Pseudomonas aeruginosa ATCC BAA 3107 (PA-SEN), evolved line 1): 64
- Relative MIC [20]: 64
- Relative MIC [21]: 64
- Relative MIC [22]: 64
- Relative MIC [23]: 64
- Relative MIC [24]: 64
- Relative MIC [25]: 64
- Relative MIC [26]: 64
- Relative MIC [27]: 64
- Relative MIC [28]: 64
